From patent US20040018501A1, “Methods and systems for analyzing complex biological systems” (priority 2001, published 2004)

System: Saccharomyces cerevisiae wild type strain BY4743
Assay: AF1 yeast metabolite analysis by GC-MS and LC-MS
Format: cell-based
Settings: for Fold Change, NacetylLglutamate: detected metabolite NacetylLglutamate; for Fold Change, NacetylLornithine: detected metabolite NacetylLornithine; for Fold Change, nicotinic acid: detected metabolite nicotinic acid; for Fold Change, nopaline: detected metabolite nopaline; for Fold Change, oleic acid: detected metabolite oleic acid; for Fold Change, ornithine: detected metabolite ornithine; for Fold Change, phenylalanine: detected metabolite phenylalanine; for Fold Change, phosphoenolpyruvate: detected metabolite phosphoenolpyruvate; for Fold Change, pipecolic acid: detected metabolite pipecolic acid; for Fold Change, proline: detected metabolite proline; for Fold Change, pyridoxine: detected metabolite pyridoxine; for Fold Change, selenoDLmethionine: detected metabolite selenoDLmethionine; for Fold Change, serine: detected metabolite serine; for Fold Change, sugar-phosphate: detected metabolite sugar-phosphate; for Fold Change, tetradecanoic acid: detected metabolite tetradecanoic acid; for Fold Change, threonine/homoserin: detected metabolite threonine/homoserin; for Fold Change, thymine: detected metabolite thymine; for Fold Change, tryptophan: detected metabolite tryptophan; for Fold Change, tyrosine: detected metabolite tyrosine; for Fold Change, urocanic acid: detected metabolite urocanic acid; for Fold Change, valine: detected metabolite valine; for Fold Change, zeatin: detected metabolite zeatin

CC[C@@H]([C@H](C)O)n1ncn(-c2ccc(N3CCN(c4ccc(OC[C@@H]5CO[C@@](Cn6cncn6)(c6ccc(F)cc6F)C5)cc4)CC3)cc2)c1=O [Posaconazole]
Fold Change of alanine (GC): 1.035
Fold Change of asparagine (GC): 0.145
Fold Change of aspartic acid (GC): −0.071
Fold Change of campesterol (GC): 0
Fold Change of desmosterol (GC): 0
Fold Change of disaccaride1 (GC): 0.04733
Fold Change of disaccaride2 (GC): 0.313
Fold Change of disaccaride3 (GC): 0.3407
Fold Change of ergosterol (GC): 0.808
Fold Change of fucosterol (GC): 6.722
Fold Change of glutamine (GC): 0.6439
Fold Change of glycanopyrose (GC): 1.594
Fold Change of glycerol (GC): 0.1873
Fold Change of glycine (GC): 0.08267
Fold Change of hexadecanoic acid (GC): −0.01867
Fold Change of iso citric acid (GC): 0.4
Fold Change of isoleucine (GC): 0.1023
Fold Change of lanosterol (GC): 7.464
Fold Change of leucine (GC): 0.334
Fold Change of lysine (GC): 0.1586
Fold Change of malic acid (GC): 0.2942
Fold Change of biotin (LC): 0
Fold Change of folic acid (LC): 0
Fold Change, NacetylDglucosamine (detected metabolite NacetylDglucosamine, platform nLC): 0
Fold Change, NacetylLglucosamine (detected metabolite NacetylLglucosamine, platform pLC): 0
Fold Change, NacetylLglutamate (platform nLC): −0.07165
Fold Change, NacetylLglutamate (platform pLC): 0
Fold Change, NacetylLornithine (platform nLC): 0
Fold Change, NacetylLornithine (platform pLC): 0.1338
Fold Change, TMS mevalonic acid lactone (detected metabolite TMS mevalonic acid lactone, platform GC): −0.3118
Fold Change, mevalonic acid lactone (detected metabolite mevalonic acid lactone, platform GC): 0.5555
Fold Change, mevalonic lactone (detected metabolite mevalonic lactone, platform pLC): −0.08368
Fold Change, niacinamide (detected metabolite niacinamide, platform pLC): 0
Fold Change, nicotinic acid (platform nLC): 1.421
Fold Change, nicotinic acid (platform pLC): −0.8142
Fold Change, nopaline (platform nLC): 0.7554
Fold Change, nopaline (platform pLC): 0
Fold Change, octadecanoic acid (detected metabolite octadecanoic acid, platform GC): 0.321
Fold Change, oleic acid (platform GC): −0.5057
Fold Change, oleic acid (platform nLC): 0.5606
Fold Change, ornithine2 (detected metabolite ornithine2, platform GC): −0.1383
Fold Change, ornithine3 (detected metabolite ornithine3, platform GC): 0.041
Fold Change, ornithine (platform nLC): 2.314
Fold Change, ornithine (platform pLC): 0.4314
Fold Change, orotic acid (detected metabolite orotic acid, platform nLC): 0
Fold Change, palmiteliadic acid (detected metabolite palmiteliadic acid, platform GC): −0.2453
Fold Change, palmitic acid (detected metabolite palmitic acid, platform nLC): 0.1518
Fold Change, phenylalanine (platform GC): 0.06069
Fold Change, phenylalanine (platform nLC): −0.03702
Fold Change, phenylalanine (platform pLC): −0.1585
Fold Change, phenylpyruvic acid (detected metabolite phenylpyruvic acid, platform nLC): 0
Fold Change, phosphate (detected metabolite phosphate, platform GC): −0.1833
Fold Change, phosphoenolpyruvate (platform LC): 0
Fold Change, phosphoenolpyruvate (platform nLC): 0
Fold Change, pinitol (detected metabolite pinitol, platform nLC): 0
Fold Change, pipecolic acid (platform nLC): 0.1806
Fold Change, pipecolic acid (platform pLC): 0.3444
Fold Change, progesterone (detected metabolite progesterone, platform pLC): 0
Fold Change, proline (platform LC): 0.3157
Fold Change, proline (platform nLC): 0.3147
Fold Change, pyridoxine (platform nLC): −0.1015
Fold Change, pyridoxine (platform pLC): −0.239
Fold Change, pyrimidine (detected metabolite pyrimidine, platform GC): 0.159
Fold Change, retinoic acid (detected metabolite retinoic acid, platform nLC): 0
Fold Change, riboflavin (detected metabolite riboflavin, platform pLC): 0
Fold Change, salicylic/HObenzoic (detected metabolite salicylic/HObenzoic, platform nLC): 0
Fold Change, selenoDLmethionine (platform nLC): −0.6722
Fold Change, selenoDLmethionine (platform pLC): −0.7083
Fold Change, serine (platform nLC): 0.152
Fold Change, serine (platform pLC): 0.2417
Fold Change, shikimic acid (detected metabolite shikimic acid, platform nLC): 0
Fold Change, sinapinic acid (detected metabolite sinapinic acid, platform nLC): 0
Fold Change, sorbitol/mannitol (detected metabolite sorbitol/mannitol, platform nLC): 0.009121
Fold Change, squalene (detected metabolite squalene, platform GC): 0.07431
Fold Change, succinic (detected metabolite succinic, platform nLC): −0.06141
Fold Change, sucrose (detected metabolite sucrose, platform nLC): 0.1847
Fold Change, sugar-phosphate (platform nLC): −0.04543
Fold Change, sugar-phosphate (platform pLC): 0
Fold Change (detected metabolite sugar?, platform GC): 0.6923
Fold Change, tetradecanoic acid (platform GC): −0.214
Fold Change, tetradecanoic acid (platform nLC): 1.029
Fold Change, thiamine (detected metabolite thiamine, platform pLC): 0
Fold Change, threonine2 (detected metabolite threonine2, platform GC): 0.457
Fold Change, threonine3 (detected metabolite threonine3, platform GC): 0.225
Fold Change, threonine/homoserin (platform nLC): 0.04034
Fold Change, threonine/homoserin (platform pLC): 0.1437
Fold Change, thymine (platform nLC): 0
Fold Change, thymine (platform pLC): 0
Fold Change, tms glutamine3 (detected metabolite tms glutamine3, platform GC): 0.6709
Fold Change, tms lysine4 (detected metabolite tms lysine4, platform GC): 0.05667
Fold Change, tms tyrosine2 (detected metabolite tms tyrosine2, platform GC): 1.228
Fold Change, tms tyrosine3 (detected metabolite tms tyrosine3, platform GC): 0.1911
Fold Change, tryptophan (platform nLC): 4.676
Fold Change, tryptophan (platform pLC): 0
Fold Change, tyrosine (platform nLC): 0.0282
Fold Change, tyrosine (platform pLC): 0.1008
Fold Change, uracil (detected metabolite uracil, platform nLC): −0.2779
Fold Change, uric acid (detected metabolite uric acid, platform pLC): 0
Fold Change, uridine (detected metabolite uridine, platform nLC): 0.02855
Fold Change, urocanic acid (platform nLC): 0
Fold Change, urocanic acid (platform pLC): 0
Fold Change, valine (platform GC): 0.345
Fold Change, valine (platform nLC): 0.0195
Fold Change, xanthosine(diH2O) (detected metabolite xanthosine(diH2O), platform pLC): 0
Fold Change, xanthosineDiH2O (detected metabolite xanthosineDiH2O, platform nLC): 0
Fold Change, zeatin (platform nLC): 0
Fold Change, zeatin (platform pLC): 0
Fold Change of 2-ketobutyric acid (nLC): −0.9992
Fold Change of 2-ketoglutaric (nLC): 11.33
Fold Change of 3-indolylacetonitri (nLC): −0.9998
Fold Change of 4-methylcatechol (nLC): 0
Fold Change of 4aminobutyrate/dimg (nLC): −0.008939
Fold Change of 5hydroxyLtryptophan (nLC): 0
Fold Change of 6-benzylaminopurine (nLC): 0
Fold Change of DLaminoadipic acid (nLC): −0.9935
Fold Change of abscisic acid (nLC): 0
Fold Change of aconitic acid (nLC): 1.874
Fold Change of adenine (nLC): 0
Fold Change of adenosine (nLC): 128.3
Fold Change of alanine (nLC): 0.1091
Fold Change of allantoic acid (nLC): 0.3321
Fold Change of allantoin (nLC): 5.97
Fold Change of anthranilic acid (nLC): 0
Fold Change of arginine (nLC): 0.1707
Fold Change of argininosuccinate (nLC): 318.3
Fold Change of asparagine (nLC): 0.006865
Fold Change of aspartic (nLC): 0.305
Fold Change of benzoic acid (nLC): 0
Fold Change of biotin (nLC): −0.9992
Fold Change of caffeic acid (nLC): −0.49
Fold Change of catechol (nLC): 0
Fold Change of cinnamic acid (nLC): 0
Fold Change of citricanoic/itaconi (nLC): 0
Fold Change of citrulline (nLC): 1160
Fold Change of coumaric acid (nLC): 0
Fold Change of cytidine (nLC): −0.9986
Fold Change of cytosine (nLC): 0
Fold Change of decanoic acid (nLC): 0.1263
Fold Change of diaminopimelic acid (nLC): 0
Fold Change of dihydrofolic acid (nLC): 0
Fold Change of estrone (nLC): 0
Fold Change of farnesol (nLC): 0
Fold Change of folic acid (nLC): 0
Fold Change of fumaric/3m2oxobutan (nLC): −0.9997
Fold Change of gallic acid (nLC): 0.4414
Fold Change of gibberellic (nLC): 0
Fold Change of glucosamine6PO4 (nLC): −0.9951
Fold Change of glutamic/acetylseri (nLC): 0.3222
Fold Change of glutamine/lysine (nLC): 0.09814
Fold Change of guanine (nLC): 0
Fold Change of guanosine (nLC): −0.993
Fold Change of histidine (nLC): 0
Fold Change of homogentisic/uric (nLC): 0
Fold Change of hydrocortisone (nLC): 0
Fold Change of hypoxanthine (nLC): 0.1751
Fold Change of indole3pyruvic acid (nLC): 0
Fold Change of inostol/glucos/sorb (nLC): −0.493
Fold Change of isocitric/citric/qu (nLC): 1.711
Fold Change of jasmonic acid (nLC): 0
Fold Change of kinetin (nLC): 0
Fold Change of lactic acid (nLC): 0.5987
Fold Change of lauric acid (nLC): 0.9833
Fold Change of leucine/isoleucine/ (nLC): 0.03158
Fold Change of luteolin (nLC): 0
Fold Change of malic acid (nLC): 0.3101
Fold Change of malonic acid (nLC): 0
Fold Change of menthol* (nLC): 0.08121
Fold Change of methionine (nLC): 0
Fold Change of 4-aminobenzoic acid (pLC): 0
Fold Change of 4-methylcatechol (pLC): 0
Fold Change of 4ambutyrate/dimglyc (pLC): 31.37
Fold Change of 5hydroxyLtryptophan (pLC): 0
Fold Change of 6benzylaminopurine (pLC): 0
Fold Change of DL-aminoadipic acid (pLC): 1.685
Fold Change of abscisic acid (pLC): 0
Fold Change of adenine (pLC): −0.0145
Fold Change of adenosine (pLC): 0
Fold Change of alanine/sarcosine (pLC): 0.1013
Fold Change of allantoic acid (pLC): 0
Fold Change of anthranilic acid (pLC): 0
Fold Change of arginine (pLC): 0.03383
Fold Change of argininosuccinate (pLC): 0
Fold Change of asparagine (pLC): 0.4302
Fold Change of aspartic acid (pLC): 0.3626
Fold Change of caffeine (pLC): 0
Fold Change of citric acid TME (pLC): 0
Fold Change of citrulline (pLC): 0.1011
Fold Change of cytidine (pLC): 0
Fold Change of cytosine (pLC): 1135
Fold Change of diaminopimelic acid (pLC): 0
Fold Change of dihydrofolic acid (pLC): 0
Fold Change of dipicolinic acid (pLC): 0
Fold Change of glucosamine (pLC): 0
Fold Change of glucosamine6PO4 (pLC): 0
Fold Change of glutamate (pLC): 0.3769
Fold Change of glutamine/lysine (pLC): 0.303
Fold Change of glutathione (pLC): 0.0101
Fold Change of guanosine (pLC): 0.04655
Fold Change of histidine (pLC): 0
Fold Change of hydrocortisone (pLC): 0
Fold Change of hypoxanthine (pLC): 0.135
Fold Change of itaconic acid dimes (pLC): 0
Fold Change of kinetin (pLC): 0
Fold Change of leucine/isoleucine/ (pLC): 0.04937
Fold Change of mannitol (pLC): 0.3919
Fold Change of methionine (pLC): −0.3997
